{"source": "patent US8124408B2", "about": "“Preparation of inactivated artificial antigen presenting cells and their use in cell therapies” (Janssen Pharmaceutica N.V., priority 2006, dated 2012)", "key": {"[1]": {"test_system": "baculovirus", "assay": "baculovirus/Sf9 infectivity assay", "type": "cell-based", "conditions": "for Virus Titer (10^−4) / Virus Titer (10^−5): UVADEX 5 μg/ml, virus added, Sf9 cells, triplicate", "method": "A baculovirus/Sf9 infectivity assay was used to determine if psoralen-derivative/UVA treatment was sufficient to inactivate viruses associated with virus-infected insect cells. Sf9 insect cells were infected with BacPAK6 viral stock and incubated at room temperature for one hour (BacPAK6 baculovirus rapid titer kit; BD Biosciences Clontech). […] Five days after irradiation, culture supernatants were collected. From these, new viral stocks were prepared via serial dilutions of 10^−3, 10^−4 and 10^−5, respectively. These serially diluted stock dilutions were each used to infect a second set of fresh (i.e., not previously infected) Sf9 cell cultures. This second set of cultures was overlaid with methylcellulose and grown for approximately 48 hours. Culture supernatants of this second set of cultures were discarded and a mouse monoclonal anti-gp64 (baculovirus-specific) protein antibody (Invitrogen) was added. After an inbubation period and several washes to remove unbound anti-gp64 antibody, a goat-anti-mouse polyclonal antibody conjugated to horseradish peroxidase (i.e., secondary antibody obtained from Invitrogen) was added. Unbound secondary antibody was removed with several washes, and […] was added. The number of stained foci was counted and the virus titer (pfu/ml) was calculated according to the manufacturer's instructions."}, "[2]": {"test_system": "baculovirus", "assay": "baculovirus titer by rapid microtiter assay after UVADEX/UVA treatment of infected Sf9 cells", "type": "cell-based", "conditions": "UVADEX 5 μg/ml", "method": "The treated cells were then cultured at 28° C. for 4 days. Cultured supernatant was collected and used to infect fresh, uninfected cultures of Sf9 cells seeded in 96-well plates. Baculovirus present in these Sf9 cultures was detected by a rapid microtiter assay (Invitrogen) using a gp64-specific antibody, and baculovirus titers were calculated.\nIn a similar experiment, Sf9 cells were infected with the titrated doses of baculovirus as described above. […] The treated cells were then cultured at 28° C. for four days. The culture supernatant was collected and used to infect a new culture of Sf9 cells seeded in 96-well plates. Baculovirus in the Sf9 cells was detected by a rapid microtiter assay (Invitrogen). The culture plates were overlaid with methylcellulose and cultured for 48 hrs. Baculovirus was detected by immunoassay with a gp64-specific antibody (Invitrogen). The number of foci in each well was counted and the virus titer (pfu/ml) of the supernatant of the infected cells was calculated according to the manufacturer's instructions."}, "[3]": {"test_system": "Drosophila clone B xAPCs", "assay": "xAPC proliferation, viable cell count by trypan blue staining", "type": "cell-based", "description": "(§1) Viable (i.e., live) xAPCs were counted on day 1, day 5, day 9, day 14, and day 16 post-treatment by trypan blue staining of each culture.\nas §1"}, "[4]": {"test_system": "xenogenic HLA A2.1, B7-1, B7-2, and β2m transcripts", "assay": "RT-PCR of xenogenic nucleic acid transcription in xAPC/clone D cocultures", "type": "cell-based, Drosophila", "conditions": "UVADEX 5 μg/ml and UVA 5, 15 or 30 minutes, 10 weeks coculture with clone D", "description": "RT-PCR products were then visualized by agarose gel electrophoresis.\nIt was possible that xenogenic nucleic acid introduced into the xAPCs might have remained active, even though the xAPCs themselves were rendered nonproliferative. […] Each culture of xAPCs was washed and cocultured for 10 weeks with an indicator Drosophila cell line designated herein as clone D, which is a cell line that has not been modified by introduction of xenogenic nucleic acid. Reverse transcriptase (RT)-PCR reactions using primers specific for xenogenic HLA A2.1, B7-1, B7-2, and β2m transcripts were then performed on extracts of the cocultures."}, "[5]": {"test_system": "lytic virus associated with Drosophila xAPCs", "assay": "infectivity of xAPC viral stock on Drosophila clone D indicator cells", "type": "cell-based", "method": "Thus, a xAPC culture containing approximately 6×10^8 Drosophila xAPCs (clone B) was collected, suspended in 0.6 ml Schneider's media on ice, and sonicated for 30 seconds. Cell debris was pelleted by centrifugation, and the supernatant collected and layered onto a cesium chloride (CsCl) cushion, which was at a density of 1.2 (20% w/w CsCl), at a ratio of three volumes of supernatant to one volume of CsCl. The supernatant-loaded CsCl cushion was then ultracentrifuged at 25,000 rpm for four hours. Viral fractions were collected and the fraction densities measured. Three milliliter fractions at a density of 1.0 to 1.2 were pooled and dialyzed against phosphate-buffered saline (PBS), generating a viral stock, and the viral stock stored at −80° C. until use. […] Independent cultures (1×10^6 cells/culture) of the Drosophila clone D indicator cell line were incubated at 28° C. with either the treated and untreated viral aliquots. After a three-day incubation period, the indicator cell cultures were harvested and stained with propidium iodide (PI) (1 μg/1×10^6 cells) at 4° C. for 10 minutes. The live and lytic cells were analyzed by FACS, with the results depicted in FIGS. 4A-4C.\nAfter a three-day incubation period, the percentage of viable cells was quantified in each indicator cell line culture. […]"}, "[6]": {"test_system": "HLA-A2, B7-1, and ICAM-1", "assay": "FACS of exogenous molecules in xAPC clone B/clone D cocultures", "type": "cell-based, Drosophila", "conditions": "UVADEX/UVA 5 μg/ml, 10 weeks coculture with clone D", "method": "(§2) FACS analysis was carried out by independently using antibodies specific for human HLA, human B7.1, and ICAM-1, as indicated.\nFor comparison, γ-radiation-treated xAPC clone B/clone D cocultures and untreated xAPC clone B/clone D cocultures were analyzed by FACS as well.\nThe cells from each culture were washed and then and cocultured with clone D indicator cells for 10 weeks. The cocultured cells were collected and aliquoted, and each aliquot was stained with one of HLA-A2, B7-1, and ICAM-1 fluorescein isothiocyanate (FITC)-conjugated monoclonal antibodies (mAbs), respectively. The stained cocultures were then analyzed by FACS."}, "[7]": {"test_system": "HLA-A2, B7-1, or ICAM-1", "conditions": "UVADEX 5 μg/ml, UVA 0, 5 or 15 minutes", "method": "as §2\nThe xAPC cultures were washed and stained with monoclonal antibodies specific for HLA-A2, B7-1, or ICAM-1 and analyzed by FACS."}, "[8]": {"test_system": "CD8^+ T cells", "description": "Human rIL-2 (20 units/ml) and rIL-7 (30 units/ml) were each added to the culture at day 5. The CD8^+ T cells were restimulated twice on the seventh and fifteenth days of the culture period with non-CD8 adherent cells in PBMC from the same donor in the presence of the MART-1 peptides. The expanded CD8^+ T cells were then stained with MART-1 tetramers (Beckman Coulter) consisting of four MHC molecules bound to the MART-1 peptide, which was conjugated to a fluorescent protein, and analyzed by FACS."}, "[9]": {"test_system": "CD8^+ T cells", "assay": "K^b/OVA8 tetramer staining of mouse CD8+ T cells activated with xAPCs", "type": "cell-based, mice", "method": "Lanes 1 and 2, percentage of stained CD8^+ T cells isolated form and activated from wild type mice (B6), as described in FIG. 8A (performed as a positive control).\nIL-2 was added on day three and day five of the xAPC/naïve CD8^+ T cell coculture. The coculture was split on day seven of the coculture period, and on day nine the cultured CD8^+ T cells were collected. An OVA8/MHC tetramer (Beckman Coulter) preparation was prepared and 10 μl was mixed with 1×10^6 CD8^+ T cells/100 μl of FACS buffer (0.5% BSA, 0.2%, NaN3 in PBS). The K^b/OVA8 tetramers consisted of four MHC molecules bound to the OVA8 peptide, which was conjugated to a fluorescent protein. The mixture was incubated at room temperature for 30 minutes and washed in PBS, and then spun down at 400×g for 5 minutes. The cell pellet was resuspended in FACS buffer (500 μl) and immediately read on a FACScan flow cytometry machine at an excitation wavelength of 486 nm-580 nm and an emission wavelength of 586 nm-590 nm."}, "[10]": {"test_system": "CD8^+ T cells", "assay": "APC function of glutaraldehyde-fixed Drosophila xAPCs", "type": "cell-based", "conditions": "xAPCs fixed with 0.3% glutaraldehyde", "description": "Inactivation of Drosophila cells was initially attempted with glutaraldehyde fixation in the absence of preservative."}, "[11]": {"conditions": "UVA irradiation time 10 minutes"}}, "note": "Where two headings read alike, the source gives them in different places."}
{"smiles": "COc1c2occc2cc2ccc(=O)oc12", "note": "[UVADEX, 9-methoxy-7H-furo[3,2-g]-1-benzopyran-7-one]", "values": [{"measurement": "infectious virus in viral stock obtained in the supernatant", "setting": "[1]; 5 mcg/ml 8-MOPs, UVA 320-380 nm for 5 minutes, infected Sf9 cells", "result": "does not contain infectious virus"}, {"measurement": "Virus Titer (10^−4)", "setting": "[1]; UVA irradiation time 5 minutes", "result": 0}, {"measurement": "Virus Titer (10^−5)", "setting": "[1]; UVA irradiation time 5 minutes", "result": 0}, {"measurement": "Virus Titer (10^−4)", "setting": "[1]; [11]", "result": 0}, {"measurement": "Virus Titer (10^−5)", "setting": "[1]; [11]", "result": 0}, {"measurement": "baculovirus titer of culture supernatant", "setting": "[2]; ten-minute UVA", "result": "no detectible baculovirus titer"}, {"measurement": "baculovirus titer of culture supernatant", "setting": "[2]; twenty-minute UVA", "result": "no detectible baculovirus titer"}, {"measurement": "inactivation of Drosophila cells", "setting": "[3]; 8-MOPs plus 1 Joule/cm^2 for 2 minutes", "result": "sufficient to inactivate Drosophila cells"}, {"measurement": "cytotoxicity at 5 µg/mL", "setting": "[3]; Drosophila melanogaster, light or radiation study, read-out: inhibition of viability of xAPC cultures", "result": "~50", "unit": "%"}, {"measurement": "viable xAPCs detected", "setting": "[3]; two weeks after UVADEX/UVA treatment, any treated culture", "result": "almost no viable cells were detected"}, {"measurement": "xenogenic HLA A2.1, B7-1, B7-2, and β2m transcripts", "setting": "[4]", "result": "absence of detectable levels"}, {"measurement": "infection and lysis of indicator cell culture by serial dilutions of viral stock", "setting": "[5]; 5 μg/ml for 10 minutes, dilutions 10^−1 to 10^−9, three-day incubation", "result": "almost completely incapable of infecting and lysing the indicator cell culture at all but the lowest dilution tested"}, {"measurement": "indicator cell infection or lysis by microscopy", "setting": "[5]; viral stock treated 5 μg/ml for 10 minutes, three-day incubation", "result": "failed to result in any observable indicator cell infection or lysis"}, {"measurement": "expression of HLA-A2, B7-1, and ICAM-1 in cocultures", "setting": "[6]", "result": "undetectable levels"}, {"measurement": "surface expression level of the three exogenous molecules", "setting": "[7]", "result": "essentially the same"}, {"measurement": "Percent p/MHC tetramers of CD8^+ T cells (% Tetr + CD8^+)", "setting": "[8]; Donor 1, MART-1 tetramer", "result": 0.95, "unit": "%"}, {"measurement": "Percent p/MHC tetramers of CD8^+ T cells (% Tetr + CD8^+)", "setting": "[8]; Donor 2, MART-1 tetramer", "result": 11.55, "unit": "%"}, {"measurement": "Percent p/MHC tetramers of CD8^+ T cells (% Tetr + CD8^+)", "setting": "[8]; Donor 3, MART-1 tetramer", "result": 15.07, "unit": "%"}, {"measurement": "Percent p/MHC tetramers of CD8^+ T cells (% Tetr + CD8^+)", "setting": "[8]; Donor 4, MART-1 tetramer", "result": 43.33, "unit": "%"}, {"measurement": "percentage of CD8^+ T cells stained with K^b/OVA tetramer versus non-treated xAPCs", "setting": "[9]; MyD88 knock-out (MyD88^−/−) mice", "result": "no increase"}, {"measurement": "percentage of CD8^+ T cells stained with K^b/OVA tetramer versus non-treated xAPCs", "setting": "[9]; wild type (C57BL/6 (B6)) mice", "result": "higher percentage"}]}
{"smiles": "O=CCCCC=O", "note": "[glutaraldehyde]", "values": [{"measurement": "CD8^+ T cell activation, less than unfixed cells", "setting": "[10]", "result": 2, "unit": "fold"}, {"measurement": "antigen-specific proliferation of CD8^+ T cells, less than unfixed cells", "setting": "[10]", "result": "2.5- to 6 fold"}, {"measurement": "generation of CD8^+ T cells capable of lysing target cells", "setting": "[10]", "result": "to a lesser degree than unfixed cells"}]}
